Laboratory results: patent US8975265B2, “Substituted imidazo[1,2-a]pyrimidines and —pyridines” (Bayer Intellectual Property GmbH, priority 2010, dated 2015)
pIC50: −log10 of the molar value. Read-outs that look alike come from different tables or passages of the source.

Columns and labels:
[1] = system: p-AKT S473 in PC3 human prostate tumours; test: In vivo xenograft mechanism of action study; set-up: species or system athymic nude mice; conditions: Mus musculus, po, PC3 tumours in nude mice, once 50 mg/kg p.o.
Excerpt: In Vivo Xenograft Mechanism of Action Study
To this extent PC3 human prostate tumours were xenografted onto athymic nude mice. PC3 tumour cells were cultivated according to ATCC protocols in recommended media contained 10% FCS and harvested for transplantation in a subconfluent (70%) state. 3×10^6 tumour cells suspended in 50% Matrigel were subcutaneously implantated into the inguinal region of male mice. Tumours were allowed to grow to the predetermined size of 60-80 mm^2. When the tumours were approximately in size, the animals were randomized to treatment and control groups (groups size: 9 animals) and treatment was started. Animals were treated once with 50 mg/kg compound or vehicle per oral administration (p.o.) carried out via a gastric tube. Treatment of each animal was based on individual body weight. At 2, 5 and 24 hours post treatment 3 animals each were sacrificed and the PC3 tumours excised. Tumour samples of approximately 5×5×5 mm were lysed on ice in MSD lysis buffer in the presence of protease and phosphatase inhibitors using Tissue Lyzer (Qiagen, Germany). The levels of p-AKT S473 in extracts from tumour tissue were analysed in an ELISA based assay. This assay is based on the “Akt Duplex” of the MULTI-SPOT® Assay System (Fa. Meso Scale Discovery, Cat# N41100B-1) following manufacturers instructions. Each assay used 20 μg of protein extract and measured total AKT and p-AKT content simultaneously in one well. All measurements where at least done in duplicates and confirmed by independent repetition.
Values for P-AKT are expressed as percentage of P-AKT level compared to total-AKT content of the extracts. Vehicle treated tumours were analyzed to determine the basal level of P-AKT in this model and used as a normalization control to determine the % P-AKT relative to vehicle levels.

[2] = system: KPL-4 breast cancer cell line; test: Tumor cell proliferation assay (CellTiter-Glo, 72 h), KPL-4; assay type: cell-based; conditions: KPL4, 72h drug exposure
Procedure, shortened: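 KPL-4 cells were treated with compound for 72 h at 37°C. Viability was measured as ATP by CellTiter-Glo luminescence, with a separate t=0 plate read after overnight attachment. A reference compound was run as standard.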

[3] = system: p-AKT1/2/3-S473 in KPL4 breast tumour cell line; test: Cellular p-AKT1/2/3-S473 assay; assay type: cell-based; conditions: KPL4 breast tumour cell line, 2 hours treatment; read-out: pAKT-S743 median IC50
Procedure, shortened: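 KPL4 cells (PIK3CA H1047R, HER2 0/E, hormone independent) were seeded at 60–80% confluency, cultured overnight, then exposed to compound for 2 h at 37 °C. pAKT-S473 and total AKT measured together by MSD Akt Duplex on 20 µg extract; pAKT expressed as % of total AKT, at least duplicate with independent repeats.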

MCF7 = test: Tumor cell proliferation assay (CellTiter-Glo, 72 h), MCF7; assay type: cell-based; conditions: Homo sapiens, 72h drug exposure
Experimental: Compounds were tested in a cell-based assay that measures the capacity of the compounds to inhibit tumour cell proliferation following a 72h drug exposure. Cell viability is determined using CellTiter-Glow® (CTG, Promega, cat# G7571/2/3). The CellTiter-Glo® Luminescent Cell Viability Assay is a homogeneous method to determine the number of viable cells in culture. Detection is based on using the luciferase reaction to measure the amount of ATP from viable cells. The amount of ATP in cells correlates with cell viability. Within minutes after a loss of membrane integrity, cells lose the ability to synthesize ATP, and endogenous ATPases destroy any remaining ATP; thus the levels of ATP fall precipitously.
Cells were plated at 3000-5000 cells/well (depending on the cell lines) in 90 μL growth medium on MTPs (Corning; #3603, black plate, clear flat bottom). For each cell line assayed, cells were plated onto a separate plate for determination of […] at t=0 hour and t=72 hour time points. Following overnight incubation at 37° C., chemiluminescence values for the t=0 samples were determined after adding 10 μl medium and 100 μl CTG solution according to manufacture protocol. Plates for the t=72 hour time points were treated with compounds diluted into growth medium at ten times final concentration added in 10 μL to the cell culture plate. Cells were then incubated for 72 hours at 37° C. Chemiluminescence values for the t=72 hour samples were determined. […] Experiments were controlled using a reference compound as standard.

[4] = target: His-tagged human recombinant kinase full-length Akt1 (Homo sapiens (Human), UniProt P31749); test: Akt1 kinase assay (TR-FRET); assay type: biochemical; conditions: 10 μM ATP; read-out: Akt1, median IC50
Procedure, shortened: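 Full-length His-tagged Akt1 (about 0.05 ng/μl final) preincubated 15 min at 22 °C with compound in 50 mM TRIS/HCl pH 7.5, 5 mM MgCl2, 1 mM DTT, 0.02% Triton X-100; biotinylated peptide substrate. Phosphopeptide detected by TR-FRET (Eu-chelate antibody to streptavidin-XL665) after 1 h at 22 °C.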

[5] = system: p-4E-BP1-T70 in KPL4 breast tumour cell line; test: Cellular p-4E-BP1-T70 assay; assay type: cell-based; conditions: 2 hours treatment, read-out: P4EBP1-T70 median IC50
Experimental: The molecular mechanism of action was investigated in a set of experiments to assess the inhibition of the PI3K-AKT-mTOR pathway in responsive cell lines such as KPL4 breast tumour cell line (PIK3CAH1047R, HER20/E and hormone independent). The phospho-substrates of PI3K-AKT-mTOR axis were used as the read-outs to reflect pathway inhibition. Cells were seeded at 60-80% confluency per well in 96-well cell culture plates. After overnight incubation at 37° C. 5% CO2, cells were treated with compounds and vehicle at 37° C. for 2 hours. Thereafter, cells were lysed in 150 μl lysis buffer and the levels of phospho-AKT at T308 and S473 and p-4E-BP1 at T70 sites were determined with the corresponding AlphaScreen® SureFire® assay kits (Perkin Elmer: 4E-BP1 Assay Kit Cat # TRG4E2S10K; Akt 1/2/3 p-Ser 473 #TGRA4S500 and Akt 1/2/3 p-Thr 308 #TGRA3S500 as well as IgG detection Kit #6760617M) as described in the manuals. All measurements where at least done in duplicates and confirmed by independent repetition.

[6] = 2 hours post treatment, read-out: P-AKT % relative to control at 2 hours
[7] = 5 hours post treatment, read-out: P-AKT % relative to control at 5 hours

Chain of His-tagged human recombinant kinase full-length Akt1 (P31749 whole entry): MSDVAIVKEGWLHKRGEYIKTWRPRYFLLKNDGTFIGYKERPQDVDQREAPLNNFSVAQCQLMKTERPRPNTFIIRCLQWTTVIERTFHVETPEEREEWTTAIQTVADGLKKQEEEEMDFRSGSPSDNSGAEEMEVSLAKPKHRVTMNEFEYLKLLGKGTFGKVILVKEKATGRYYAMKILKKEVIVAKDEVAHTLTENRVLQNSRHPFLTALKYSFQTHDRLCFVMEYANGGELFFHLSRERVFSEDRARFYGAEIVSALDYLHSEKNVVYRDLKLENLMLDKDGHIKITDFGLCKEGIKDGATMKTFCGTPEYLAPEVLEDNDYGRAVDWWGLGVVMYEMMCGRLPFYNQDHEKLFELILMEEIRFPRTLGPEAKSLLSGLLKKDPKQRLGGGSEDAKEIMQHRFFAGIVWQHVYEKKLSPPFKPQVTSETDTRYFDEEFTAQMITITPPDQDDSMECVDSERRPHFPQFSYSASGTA

pIC50 [2]	pIC50 [3]	pIC50 (MCF7)	pIC50 [4]	pIC50 [5]	Compound	response vs control in vivo at 50 mg/kg [1, 6]	response vs control in vivo at 50 mg/kg [1, 7]
5.70	6.11	–	–	–	NC1(c2ccc(-c3nc4ncc(-c5ccccc5)cn4c3-c3ccccc3)cc2)CCC1 [Example 1-9]	32.2%	21.1%
5.72	6.42	5.77	6.48	5.85	Cc1c(-c2ccn[nH]2)cn2c(-c3ccccc3)c(-c3ccc(C4(N)CCC4)cc3)nc2c1C [Example 2-89]	–	–
6.40	8.52	6.40	7.96	7.89	NC(=O)c1cc(Br)c2nc(-c3ccc(C4(N)CCC4)cc3)c(-c3ccccc3)n2c1 [Example 2-95]	–	–
5.72	6.42	5.74	7.17	5.80	NC(=O)c1cc(-c2cn[nH]c2)cn2c(-c3ccccc3)c(-c3ccc(C4(N)CCC4)cc3)nc12 [Example 2-97]	–	–
5.72	6.65	5.72	7.16	5.95	NC(=O)c1cc(-c2ccn[nH]2)cn2c(-c3ccccc3)c(-c3ccc(C4(N)CCC4)cc3)nc12 [Example 2-98]	–	–
6.52	6.95	6.70	6.76	6.46	Cc1cc(-c2cccnc2)cn2c(-c3ccccc3)c(-c3ccc(C4(N)CCC4)cc3)nc12 [Example 2-104]	–	–
5.66	6.17	5.74	6.66	6.24	Cc1cc(-c2cc(C)c3nc(-c4ccc(C5(N)CCC5)cc4)c(-c4ccccc4)n3c2)[nH]n1 [Example 2-105]	–	–
5.54	6.24	5.74	6.70	5.71	COc1cc(-c2ncc[nH]2)cn2c(-c3ccccc3)c(-c3ccc(C4(N)CCC4)cc3)nc12 [Example 2-149]	–	–
5.77	6.32	6.70	6.29	5.32	Nc1ccn2c(-c3ccccc3)c(-c3ccc(C4(N)CCC4)cc3)nc2c1 [Example 2-151]	–	–
5.80	6.46	6.10	6.72	5.86	C=Cc1cc(OC)c2nc(-c3ccc(C4(N)CCC4)cc3)c(-c3ccccc3)n2c1 [Example 2-160]	–	–

Further lines, the compound ahead of its results:

Compound	pIC50 [2]	pIC50 [3]	pIC50 (MCF7)	pIC50 [4]	pIC50 [5]	response vs control in vivo at 50 mg/kg [1, 6]	response vs control in vivo at 50 mg/kg [1, 7]
COc1ccn2c(-c3ccccc3)c(-c3ccc(C4(N)CCC4)cc3)nc2n1 [Example 2-00, 1-[4-(7-methoxy-3-phenyl-imidazo[1,2-a]pyrimidin-2-yl)-phenyl]-cyclobutylamine]	–	–	–	–	–	4.7%	6.3%
NC(=O)c1ccc2nc(-c3ccc(C4(N)CCC4)cc3)c(-c3ccccc3)n2c1 [Example 2-18]	6.30	7.48	–	–	–	8%	7.7%
NC(=O)c1ccn2c(-c3ccccc3)c(-c3ccc(C4(N)CCC4)cc3)nc2c1 [Example 2-41]	6.22	7.48	–	–	–	10.2%	8.8%
NC(=O)c1cc(-c2cccnc2)cn2c(-c3ccccc3)c(-c3ccc(C4(N)CCC4)cc3)nc12 [Example 2-99]	5.74	7.03	5.74	6.75	7.05	–	–
Cc1c(C(N)=O)cn2c(-c3ccccc3)c(-c3ccc(C4(N)CCC4)cc3)nc2c1C [Example 2-100]	6.05	7.17	5.92	6.70	7.27	–	–
Cc1cc(C(N)=O)cn2c(-c3ccccc3)c(-c3ccc(C4(N)CCC4)cc3)nc12 [Example 2-101]	6.52	7.72	6.52	7.85	7.05	–	–
Cc1cc(-c2cn[nH]c2)cn2c(-c3ccccc3)c(-c3ccc(C4(N)CCC4)cc3)nc12 [Example 2-102]	5.72	7.48	5.72	6.97	6.80	–	–
Cc1cc(-c2ccn[nH]2)cn2c(-c3ccccc3)c(-c3ccc(C4(N)CCC4)cc3)nc12 [Example 2-103]	6.70	6.64	6.70	7.00	6.14	–	–
NC1(c2ccc(-c3nc4ccc(-c5cnc[nH]5)cn4c3-c3ccccc3)cc2)CCC1 [Example 2-129]	5.74	6.74	6.52	6.71	5.66	–	–
CCc1cc(OC)c2nc(-c3ccc(C4(N)CCC4)cc3)c(-c3ccccc3)n2c1 [Example 2-147]	5.77	6.61	6.30	6.83	5.87	–	–
COc1cc(-c2cnc[nH]2)cn2c(-c3ccccc3)c(-c3ccc(C4(N)CCC4)cc3)nc12 [Example 2-148]	5.72	6.40	5.82	6.86	5.74	–	–
Nc1ccc2nc(-c3ccc(C4(N)CCC4)cc3)c(-c3ccccc3)n2c1 [Example 2-155]	5.26	6.43	5.77	6.07	5.65	–	–
CC(=O)Nc1ccc2nc(-c3ccc(C4(N)CCC4)cc3)c(-c3ccccc3)n2c1 [Example 2-156]	6.05	6.72	6.30	7.21	5.92	–	–
CS(=O)(=O)Nc1ccc2nc(-c3ccc(C4(N)CCC4)cc3)c(-c3ccccc3)n2c1 [Example 2-159]	5.33	6.04	5.55	5.52	5.48	–	–
Cc1cccc2nc(-c3ccc(C4(N)CCC4)cc3)c(-c3ccccc3)n12 [Example 14-0, 1-[4-(5-methyl-3-phenylimidazo[1,2-a]pyridin-2-yl)phenyl]cyclobutanamine]	5.51	5.95	5.74	5.82	5.09	–	–
